Measurements from article PMC7391683, “Two glyoxylate reductase isoforms are functionally redundant but required under high photorespiration conditions in rice” (BMC Plant Biology, 2020).
One block for each molecule: values may come before it.

Tests used:
[1] = biological target: T1, OsGR2 (Oryza sativa, UniProt Q656T5); assay: NADH oxidation, Lineweaver-Burk; type: biochemical; settings: glyoxylate fixed, pH 7.4, 30 °C
T1 construct: gene Os01g0574600; subunit about 37 kDa on SDS-PAGE
T1 sequence (Q656T5 45-341): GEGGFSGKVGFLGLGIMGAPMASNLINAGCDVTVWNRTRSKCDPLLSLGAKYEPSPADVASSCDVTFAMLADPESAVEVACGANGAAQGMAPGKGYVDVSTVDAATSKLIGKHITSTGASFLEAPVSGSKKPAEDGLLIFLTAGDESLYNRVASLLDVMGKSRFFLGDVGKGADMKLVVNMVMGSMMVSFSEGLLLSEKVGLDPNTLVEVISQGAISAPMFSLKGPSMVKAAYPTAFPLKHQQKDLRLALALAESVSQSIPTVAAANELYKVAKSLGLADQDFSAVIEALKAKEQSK
Text: NADH oxidation, Lineweaver-Burk on OsGR2

[2] = biological target: T2, OsGR1 (Oryza sativa, UniProt Q84VC8); assay: NAD(P)H oxidation; slopes of reciprocal plots against oxalate; type: biochemical; settings: read-out: Ki(oxalate) (mM) / Glyoxylate as substrate NADPH as cofactor
T2 construct: full-length, 6xHis-tag (pCold vector), E. coli Rosetta (DE3), Ni-IDA purified; subunit about 30 kDa on SDS-PAGE
T2 sequence (Q84VC8 1-293): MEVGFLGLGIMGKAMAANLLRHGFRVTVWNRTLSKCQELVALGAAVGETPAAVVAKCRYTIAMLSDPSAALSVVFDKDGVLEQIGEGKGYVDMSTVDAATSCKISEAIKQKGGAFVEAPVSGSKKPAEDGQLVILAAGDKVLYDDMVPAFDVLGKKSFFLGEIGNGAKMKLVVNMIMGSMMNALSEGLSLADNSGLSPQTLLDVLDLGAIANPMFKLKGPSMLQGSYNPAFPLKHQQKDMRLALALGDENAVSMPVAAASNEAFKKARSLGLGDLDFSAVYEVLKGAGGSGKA
Text: NAD(P)H oxidation; slopes of reciprocal plots against oxalate on OsGR1

[3] = biological target: T1, OsGR2; assay: NADPH oxidation, Lineweaver-Burk; type: biochemical; settings: pH 7.4, 30 °C
Text: NADPH oxidation, Lineweaver-Burk on OsGR2

[4] = substrate: O=CC(=O)O; assay: NADPH oxidation, Lineweaver-Burk; type: biochemical, Oryza sativa; settings: NADPH fixed, pH 7.4, 30 °C
Text: (§1) NADPH oxidation, Lineweaver-Burk on OsGR1

[5] = substrate: NC(=O)C1=CN([C@@H]2O[C@H](COP(=O)(O)OP(=O)(O)OC[C@H]3O[C@@H](n4cnc5c(N)ncnc54)[C@H](OP(=O)(O)O)[C@@H]3O)[C@@H](O)[C@H]2O)C=CC1; assay: NADPH oxidation, Lineweaver-Burk; type: biochemical, Oryza sativa; settings: glyoxylate fixed, pH 7.4, 30 °C, varied: cofactor
Text: as §1

[6] = substrate: NC(=O)C1=CN([C@@H]2O[C@H](COP(=O)(O)OP(=O)(O)OC[C@H]3O[C@@H](n4cnc5c(N)ncnc54)[C@H](O)[C@@H]3O)[C@@H](O)[C@H]2O)C=CC1; assay: NADH oxidation, Lineweaver-Burk; type: biochemical, Oryza sativa; settings: glyoxylate fixed, pH 7.4, 30 °C, varied: cofactor
Text: NADH oxidation, Lineweaver-Burk on OsGR1

Molecule: NC(=O)C1=CN([C@@H]2O[C@H](COP(=O)(O)OP(=O)(O)OC[C@H]3O[C@@H](n4cnc5c(N)ncnc54)[C@H](O)[C@@H]3O)[C@@H](O)[C@H]2O)C=CC1 [NADH]
Km [1]: 404 ± 66.5 µM

Molecule: NC(=O)C1=CN([C@@H]2O[C@H](COP(=O)(O)OP(=O)(O)OC[C@H]3O[C@@H](n4cnc5c(N)ncnc54)[C@H](OP(=O)(O)O)[C@@H]3O)[C@@H](O)[C@H]2O)C=CC1 [NADPH]
Km ([3]; glyoxylate fixed): 53 ± 4.6 µM

B1: OsGR1 (Oryza sativa Japonica Group) (protein)
chain: MEVGFLGLGIMGKAMAANLLRHGFRVTVWNRTLSKCQELVALGAAVGETPAAVVAKCRYTIAMLSDPSAALSVVFDKDGVLEQIGEGKGYVDMSTVDAATSCKISEAIKQKGGAFVEAPVSGSKKPAEDGQLVILAAGDKVLYDDMVPAFDVLGKKSFFLGEIGNGAKMKLVVNMIMGSMMNALSEGLSLADNSGLSPQTLLDVLDLGAIANPMFKLKGPSMLQGSYNPAFPLKHQQKDMRLALALGDENAVSMPVAAASNEAFKKARSLGLGDLDFSAVYEVLKGAGGSGKA
notes: full-length, 6xHis-tag (pCold vector), E. coli Rosetta (DE3), Ni-IDA purified; subunit about 30 kDa on SDS-PAGE
Km [4]: 30.4 ± 3.5 µM
Km [5]: 17.6 ± 3.1 µM
Km [6]: 420.2 ± 50.5 µM

More lines, now with the values ahead:

Ki [2]: 21.2 ± 4.3 mM
Molecule: O=C(O)C(=O)O [oxalate]

Km ([3]; NADPH fixed): 72.1 ± 5.3 µM
Molecule: O=CC(=O)O [glyoxylate]
